Results taken from US11415493B2, “Detection of cells in a liquid sample” (DELTA INSTRUMENTS B.V., priority 2016, dated 2022).
Entries after “also recorded” stand apart in the source; their conditions may differ. Like-named read-outs stand apart in the source and are kept apart here.

How the values were obtained:
bacteria in milk samples = assay: Individual bacterial count (IBC) in milk samples with different cell-impermeant dyes, flow cytometer; type: cell-based
Protocol: The nucleic acid dyes, Evagreen®, SYTOX® Green and Propidium iodide where tested against GelGreen™ (the reference method). […] Nucleic acid dyes Evagreen®, SYTOX® Green and propidium iodide were tested using the same staining and incubation conditions as for the reference method only differing in the type of dye comprised in the staining composition. Evagreen® was used at a concentration of 1.25 μM in the staining composition. SYTOX® Green and Propidium iodide were used at a concentration of 5 μM in the staining composition. Three different types of milk were used: Locally obtained raw bulk tank milk from a farm and dairy plant where collected at a local farmer. This milk is referred to as fresh raw milk and is not older than 24 hours. 24 hour and 48 hour old milk were obtained from a dairy plant. […] For this purpose E. coli was grown overnight (approx. 15 h) in TSB at 32° C. The dead bacterial where obtained by heating the grown E. coli at 110° C. for 10 minutes. An amount of 200 μl of E. coli (living or dead/damaged) is added to 45 ml fresh raw bulk milk. Both living and dead are from the same culture tube and exactly the same amount is put in the 45 ml Fresh raw milk. All the milk samples are kept at 4° C. until analyzed. […] Finally, the samples were analyzed on the flow cytometer and the fluorescent signals from the bacteria were detected and a count per unit volume was determined. […]

cells = settings: cited from earlier work
E. coli = assay: Staining E. coli culture with different nucleic acid dyes, flow cytometer counts (FL1FL2 region); type: cell-based, Escherichia coli
Protocol: First, an experiment was performed to confirm that bacterial counts obtained on the flow cytometer using GelGreen™ did correlate with traditional plate counts. For this, the Petrifilm method was selected (Standard Methods for Examination of Dairy Products 17th Edition 2004. Edited by H. M. Wehr and J. R. Frank. American Public Health Association, 800 I Street, NW, Washington D.C. 200001. Chapter 6.040), rather than a poured agar plate method, because of ease of use. Escherichia coil (E. coli) cultures were grown at 36° C. in Trypticase Soy Broth (TSB) in a culture tube. A staining composition was prepared as follows: The nucleic acid dye GelGreen™ (from Biotium) was diluted to 1× from the 10,000× commercially available stock, into Tris-buffered saline (100 mM Trizma base, 100 mM Trizma HCl, 150 mM NaCl, pH 8.5), which was preheated to 50° C. The used dilution of 1:10,000 of the GelGreen™ is in accordance with the manufacturer's recommendation for using GelGreen™ for the purpose it was intended for, namely staining DNA in an agarose gel. This is the dilution of GelGreen™ used in all the examples herein. The E. coli culture was removed from the 36° C. incubator and a small volume was diluted 1:100 into the preheated staining composition and incubated for approximately 4.5 min at 50° C. The stained E. coli was analyzed on the flow cytometer and the FL1 (Bandpass 531 nm (519-551)) and FL2 (Long pass >550 nm) fluorescence channels were used to identify the stained bacteria (FIGS. 1A and 1C). A rectangular region was defined around the positively stained cells identified as live cells in the FL1 versus FL2 2-dimensional correlation plot (FIG. 1B). A count per mL of the E. coli was obtained from the flow cytometry analysis. The E. coli culture was then diluted in TSB to obtain 3 different concentrations (1:10, 1:100 and 1:1000, respectively). The E. coli cultures were kept at 4° C. to minimize further growth until analysis. Each dilution of E. coli was stained with the GelGreen™ reagent, analyzed on the flow cytometer and counts for each dilution were obtained. Each E. coli culture was also appropriately diluted in Butterfield's PBS and 1 mL of the appropriately diluted culture was plated on Petrifilms in duplicate. The Petrifilms were placed in a 30° C. incubator, removed after 48 hrs and the colonies on each Petrifilm were counted using an automated colony counter. An average CFU/mL for each E. coli dilution was obtained. The Log of the flow cytometer bacterial counts using GelGreen™ was plotted versus the Log CFU counts from the Petrifilm (FIG. 2).
To show where the bacteria in the FL1 and FL2 signal plots can be expected, bacteria were first counted in the staining composition without adding any milk. A culture of E. coli were grown at 36° C. in Trypticase Soy Broth (TSB) in a culture tube. The nucleic acid dye GelGreen™ was diluted into Tris-buffered saline, at approximately pH 8.5, which was preheated to 50° C. The E. coli culture was removed from the 36° C. incubator and a small volume was diluted 1:100 into the preheated staining composition and incubated for approximately 4.5 min at 50° C. The stained E. coli was analyzed on the flow cytometer and the FL1 and FL2 fluorescence channels were used to identify the stained bacteria (FIG. 3A).
A culture of E. coli was grown at 36° C. in Trypticase Soy Broth (TSB), stained with GelGreen™ and counted on the flow cytometer (FIG. 5) as described in example 2. The E. coli culture was then kept at 4° C. until stained with other nucleic acid dyes. The nucleic acid dyes TOTO®-1 and SYBR® Safe (both from Thermo Fisher Scientific) were selected as alternatives. […] Both dyes have similar spectral properties to GelGreen™ and were diluted in Tris-buffered saline using the same dilution factor as GelGreen™. […]

bacteria in raw milk = assay: Initial staining of bacteria in raw milk diluted in saline buffer, flow cytometer; type: cell-based
Protocol: During initial work, raw milk was diluted in a buffer solution and the cell permeant nucleic acid stain SYTO® 9 was used to stain the bacteria contained in the milk. A flow cytometer, equipped with a 488 nm laser as the light source, forward and right angle scatter detectors, and three fluorescence detectors, was used to detect the fluorescence from labeled bacteria. The three fluorescence detectors in the flow cytometer in that initial experiment had the following optical filters; 527 nm Bandpass (FL1), 590 nm Bandpass (FL2), and a 630 nm Longpass (FL3). The flow cytometer utilizes a system that provides volumetric measurement of the sample analyzed and yields a count per unit volume. […] The conclusion was that the background fluorescent signal from the various components in raw milk, and the non-specific binding of the dye to these components, dominated the signal such that it was impossible to detect any bacteria-related fluorescence. Additionally the large scatter signals detected in flow cytometry from the milk fat globules, casein micelles and other components in the milk, prevented the use of forward and right angle scatter in the detection of bacteria. To prevent the background signal, the inventors of the present invention made an attempt to minimize such interference. […]

Compound: CC[N+](C)(CC)CCC[n+]1c(-c2ccccc2)c2cc(N)ccc2c2ccc(N)cc21.[I-].[I-] [Propidium iodide]
- usefulness as alternative dye for GelGreen in the method (bacteria in milk samples; conclusion over all milk samples): does not work
- IBC counts (bacteria in milk samples; milk samples except milk spiked with E. coli and cooked, 68° C., 1 min, pH 10.6): Almost no IBC counts
- cell membrane permeability (cells): only penetrates cell membranes of dead cells

Compound: CCCN1C=C/C(=C\c2sc3ccccc3[n+]2C)c2ccccc21 [SYBR® Safe]
- staining of E. coli (E. coli; Tris-buffered saline pH 8.5, room temperature (23° C.)): does not need heating to stain E. coli
- cell membrane permeability (cells; property stated for the dye): readily crosses the membrane of cells

Compound: CN1/C(=C/c2cc[n+](CCC[N+](C)(C)CCC[N+](C)(C)CCC[n+]3ccc(/C=C4\Sc5ccccc5N4C)c4ccccc43)c3ccccc23)Sc2ccccc21.[I-].[I-].[I-].[I-] [TOTO®-1]
- staining of E. coli (E. coli; Tris-buffered saline pH 8.5, 50° C., approximately 4.5 min): minimal staining; also recorded: does not stain E. coli
- cell membrane permeability (cells; property stated for the dye): cell impermeant

Compound: SYTO® 9
- fluorescence signals of raw milk with spiked bacteria (bacteria in raw milk): identical to the fluorescence detected in raw milk without spiked bacteria
